Test results taken from PMC5824344 (ACS Chemical Biology, 2017).
pIC50: −log10 of the molar value.

System: DENV2 strain 16681 in primary human MDMΦ
Experiment: DENV primary MDMΦ antiviral assay (infectious titer by plaque assay)
Type: cell-based, dengue virus
Settings: Dengue virus, DENV2; dengue-infected MDMΦ, 7 donors; read-out: IC50 for DENV inhibition (infectious virus titer)
Experimental: each well was scored as either positive (≥ 5 stained cells) or negative. TCID50 values were calculated according to the method of Reed and Muench.8
5.7 DENV Primary MDMΦ Antiviral Assay
DENV2 strain 16681 (a gift from Prof. E. Gould, Centre for Ecology and Hydrology, Oxford, United Kingdom) was propagated in the C6/36 cell line. In the antiviral assay, MDMΦ cells (7 donors) were seeded in a 24-well plate at a density of 1× 10^6 cells/well in 1 mL of growth media. The cells were inoculated for 2 h with DENV2 16681 strain at an MOI of 1. […]
The infectious DENV titres in supernatants collected were evaluated by plaque assay as described previously.9 Brieﬂy, LLC-MK2 cells were seeded in conﬂuent monolayers in a 12-well plate. Four 10-fold dilutions of each supernatant to be analyzed were prepared in minimum essential media (MEM, Gibco), supplemented with 100 µg mL−1 streptomycin, 100 U mL−1 penicillin and 10% (v/v) FCS. […]
After 1 d, plaques were observed and counted from the underside of the plate by eye. […]
18 healthy male BALB/c mice (8 – 12 weeks old) weighing between 20 and 35 g were procured from ACTREC, Mumbai, India. […] Temperature and humidity were recorded by an auto-controlled data logging system and maintained at 22± 3◦C and 55± 15% humidity, respectively. […]

SMILES: Cc1c(C)c2c(c(C)c1OCCCCCN1CC(O)C(O)C(O)C1CO)CCC(C)(CCCC(C)CCCC(C)CCCC(C)C)O2 (stereo not shown) [Compound 4, 5′-tocopheroxypentyl-DNJ]
- pIC50: 4.90
